Residues, ends and D or L forms follow the SMILES beside them.
What was measured:
[1] = test system: Normal human melanocytes (NHM); assay: Reduction of the ROS quantity in NHM (DCFH-DA probe, with or without H2O2 stress); format: cell-based; conditions: for ROS quantity, variation: 24 h, vs control, n = 3
Protocol: Normal human melanocytes (NHM) almost at confluence are brought into contact with the peptide according to the invention for 24 hours. At the end of this contact, the cells are contacted with a DCFH-DA probe which is inserted into these cells. After rinsing to remove the excess probe, the cells are placed in contact with H2O2 to mimic oxidative stress. A case without oxidative stress is also realized. The reaction of H2O2 with the probe in the cell is measured by fluorescence. An estimate of the quantity of cells is carried out in parallel to harmonize the results.

catalase = assay: Catalase activity of the NHM (resorufin reagent); format: cell-based, human; conditions: 24 h, vs control
Protocol: NHM almost at confluence are brought into contact with the peptide according to the invention for 24 hours. At the end of this contact, the cells are crushed. The catalase activity extracted from these cells is measured using resorufin reagent. The latter combines with the H2O2 remaining in the reaction well after the action of cellular catalase. A protein assay using bicinchoninic acid (BCA) method is used to estimate the cell quantity to homogenize the obtained data.

[2] = test system: reduced glutathione (GSH); assay: Reduced glutathione of the NHM (fluorescent probe); format: cell-based, human; conditions: 24 h, vs control
Protocol: NHM almost at confluence are brought into contact with the peptide according to the invention for 24 hours. After this contact, the cells are broken in an extraction buffer that preserves glutathione. The amount of GSH is determined by a specific fluorescent probe.

[3] = test system: melanocyte dendrites (NHM); assay: Length of melanocyte dendrites (antibody labelling, image analysis); format: cell-based, human; conditions: 48 hours, vs control, n = 3
Protocol: The cells are brought into contact with the peptide according to the invention for 48 hours. Then the melanocyte layers, once rinsed, are labeled using an antibody. The area occupied by the dendrites are obtain by image analysis on the photos taken, a parameter converted into the relative dendrite length/100 cells. At the same time, the cell nuclei are counterstained using Hoescht 33258 fluorescent dye to estimate the cell number and to harmonize the data.

[4] = test system: Normal human keratinocytes (NHK); assay: Microbead (melanosome mimic) phagocytosis by keratinocytes; format: cell-based; conditions: 24 hours then microbeads 3 hours, vs control
Protocol: Normal human keratinocytes (NHK) are seeded and cultured until a mat of confluent cells is obtained. The cells are brought into contact with the peptide according to the invention for 24 hours and a solution of fluorescent microbeads mimicking the melanosomes of the melanocyte is added for 3 hours. The beads are phagocytosed (ingested) by the keratinocytes and quantified, after rinsing, by image analysis. In parallel, the cell nuclei are counterstained using the Hoescht33258 fluorescent dye to estimate the cell quantity and to harmonize the data.

tyrosinase = assay: Tyrosinase (dopa-oxidase) activity extracted from NHM after 10 days; format: cell-based, human; conditions: vs control, n = 4
Protocol: The same culture and contact protocol as above are used with the melanocytes of two different donors with regard to their production of melanin (moderately and poorly pigmented).
After contact, the tyrosinase was extracted from the cells and its dopa-oxidase activity is assessed using the substrate L-DOPA at 37° C. The absorbance due to the production of Dopaquinone is measured at 490 nm and converted to activity units using a preset range. A protein assay using the Bicinchoninic Acid (BCA) method is used to estimate cell quantity and thus to homogenize the obtained data.

TYRP1 = assay: Expression of melanogenesis genes in NHM (qRTPCR): TYRP1; format: cell-based, human; conditions: 72 h, vs control, n = 4
Protocol: (§1) NHM are cultivated and brought into contact with the peptide according to the invention or its solvent. At the end of 72 h of contact, the melanocytes are crushed, and the mRNAs are recovered, converted into cDNA which are analyzed by qRTPCR, to estimate the changes in the expression level of the mRNAs. The expression of the following genes has been studied: MITF, TYRP1 and CREB.

CREB = assay: Expression of melanogenesis genes in NHM (qRTPCR): CREB; format: cell-based, human; conditions: 72 h, vs control, n = 4
Protocol: as §1

[5] = test system: hair follicles (bulb) from a scalp plasty; assay: Melanin production in the bulb of isolated hair follicles kept in survival for 8 days; format: cell-based, human; conditions: 10 ppm
Protocol: (§2) Follicles comprising their bulb with little pigment and isolated from a scalp plasty (resulting from cosmetic surgery— donor, dark blond; person) are placed individually in the wells of a culture plate containing the culture medium and maintained for survival (37° C.; 5% CO2).
(§3) Twelve follicles are reserved for T0 to serve as a reference for visual estimation and quantification of pigmentation but also for subsequent labeling of MC1R and MITF by immunohistology (six follicles for each marker).
(§4) Twelve follicles are placed in contact with the peptide according to the invention at 10 ppm in its solvent and twelve others in contact with the solvent alone for 8 days (0.1% DMSO in culture medium). At 8 days, all the follicles are stopped and fixed, then sectioned (7 μm) and marked with alunated carmine and photographed under a microscope. Sections of 6 of them (for each group) are used for visual and quantitative assessment by image analysis of their pigmentation (with specific filter to measure melanin). Sections of the other 6 are used for MC1R and MITF scoring, which is to be assessed by visual estimation.

MC1R = MC1R labelling by immunohistology in isolated hair follicles; format: cell-based, human; conditions: 10 ppm, 8 days
Protocol: as §2, §3, §4

MITF = MITF labelling by immunohistology in isolated hair follicles; format: cell-based, human; conditions: 10 ppm, 8 days; decreases in the control case
Protocol: as §2, §3, §4

[6] = In-vivo tolerance: adverse effects reported by the volunteers; design: species or system human
Protocol: The in-vivo tests were carried out by applying the hair lotion described above in point 1) in the Galenic part. This lotion comprises 90 ppm of the peptide of the invention. Four independent studies were conducted with a total of 84 volunteers (average age of the entire panel of selected volunteers was 42 years). All four studies were conducted over a wide range of geographical locations, times, seasons, application sites, phototypes and methods. The details are specified in the below table.

Catalase activity, Variation (%) (catalase; 10 ppm, n = 3): +31%; p < 0.01
Catalase activity, Variation (%) (catalase; 12.5 ppm, n = 3): +37%; p < 0.01
Catalase activity, Variation (%) (catalase; 12.5 ppm, n = 3, listed as peptide according to the invention): +37%
Tyrosinase activity, Variation (%) (tyrosinase; 5 ppm, poorly pigmented (§§) NHM): +15%; p < 0.05
Tyrosinase activity, Variation (%) (tyrosinase; 7 ppm, moderately pigmented (§) NHM): +14%; p < 0.01
Tyrosinase activity, Variation (%) (tyrosinase; 10 ppm, moderately pigmented (§) NHM): +27%; p < 0.01
Tyrosinase activity, Variation (%) (tyrosinase; 10 ppm, poorly pigmented (§§) NHM): +74%; p < 0.01
SMILES: CCCCCCCCCCCCCCCC(=O)N1CCC[C@H]1C(=O)N1CCC[C@H]1C(=O)O [Pal-PP-OH, palmitoyl-prolyl-proline] (HELM PEPTIDE1{[CCCCCCCCCCCCCCCC(=O)[*:2]].P.P}$$$$V2.0)
ROS quantity, variation ([1]; 10 ppm, after the H2O2 stress): −25%; p < 0.01
ROS quantity, variation ([1]; 10 ppm, without H2O2 stress (basal state)): −23%; p < 0.01
ROS quantity, variation ([1]; 12.5 ppm, after the H2O2 stress): −33%; p < 0.01
ROS quantity, variation ([1]; 12.5 ppm, without H2O2 stress (basal state)): −24%; p < 0.01
reduction of the production of intracellular peroxide ([1]; during oxidative stress, vs. control): 33%
Reduced glutathione concentration, Variation (%) ([2]; 10 ppm, n = 6): +28%; p < 0.05
Reduced glutathione concentration, Variation (%) ([2]; 12.5 ppm, n = 6): +38%; p < 0.01
Reduced glutathione concentration, Variation (%) ([2]; 12.5 ppm, n = 6, listed as peptide of the invention): +38%
Lenght of the dendrites, Variation (%) ([3]; 5 ppm): +20%; p < 0.01
Lenght of the dendrites, Variation (%) ([3]; 10 ppm): +33%; p < 0.01
Lenght of the dendrites, Variation (%) ([3]; 15 ppm): +57%; p < 0.01
Number of microbeads per image analysis, Variation (%) ([4]; 5 ppm, n = 3): +50%; p < 0.05
Number of microbeads per image analysis, Variation (%) ([4]; 10 ppm, n = 3): +283%; p < 0.01
Number of microbeads per image analysis, Variation (%) ([4]; 10 ppm, n = 3, listed as peptide according to the invention): +283%
variation in the expression of TYRP1 gene (TYRP1; 10 ppm): +42%; p < 0.01
variation in the expression of TYRP1 gene (TYRP1; 12.5 ppm): +54%; p < 0.01
variation in the expression of CREB gene (CREB; 10 ppm): +46%; p < 0.01
variation in the expression of CREB gene (CREB; 12.5 ppm): +56%; p < 0.01
dark pixels corresponding to the deposition of melanin, vs control follicles ([5]; 6 follicles): 11.6 times
Melanin, Quantification by image analysis; % area occupied by black pixels ([5]; follicle bulb, vs control, n = 6 follicles): ×11.6; p < 0.01
MC1R in the lower sheaths, visual estimation vs control (MC1R): increased more
MC1R in the bulb, visual estimation compared to T0 (MC1R; stable in the control case): increased
MITF in the bulb, visual estimation compared to T0 (MITF): increased
negative feedbacks ([6]; 3 months after the last application): no negative feedbacks
adverse effects ([6]; lotion 90 ppm, at 3 or 4 months): No adverse effects were reported
